{"source": "patent US8445492B2", "about": "“Method for inhibiting growth of cancer cells and cell telomere and diseases of cell proliferation by using heteroannelated anthraquinone derivative compounds” (National Defense Medical Center, priority 2008, dated 2013)", "key": {"[1]": {"system": "A549/ATCC"}, "[2]": {"system": "HOP-92"}, "[3]": {"system": "EKVX"}, "[4]": {"system": "NCI-H23"}, "[5]": {"system": "NCI-H522"}, "[6]": {"system": "NCI-H460"}, "[7]": {"system": "NCI-H522", "remark": "listed apart in the source"}, "[8]": {"system": "NCI-H226"}, "[9]": {"system": "NCI-H460", "remark": "listed apart in the source"}, "[10]": {"system": "NCI-H23", "remark": "listed apart in the source"}, "[11]": {"system": "EKVX", "remark": "listed apart in the source"}, "[12]": {"system": "A549/ATCC", "remark": "listed apart in the source"}, "[13]": {"system": "NCI-H226", "remark": "listed apart in the source"}, "[14]": {"system": "HOP-62"}, "[15]": {"system": "HOP-92", "remark": "listed apart in the source"}, "[16]": {"system": "HOP-62", "remark": "listed apart in the source"}}, "note": "Like-named read-outs stand apart in the source and are kept apart here.", "data": [{"smiles": "O=C1c2ccccc2C(=O)c2c1ccc1nccnc21", "note": "[TABLE 5-2]", "values": [{"measurement": "GI50", "setting": "[1]", "value": 4.53, "unit": "µM"}, {"measurement": "TGI", "setting": "[1]", "value": ">1.00E−4"}, {"measurement": "Percent Growth", "setting": "[1]; Log10 Concentration −4.0", "value": 3, "unit": "%"}, {"measurement": "Percent Growth", "setting": "[1]; Log10 Concentration −5.0", "value": 36, "unit": "%"}, {"measurement": "Percent Growth", "setting": "[1]; Log10 Concentration −6.0", "value": 77, "unit": "%"}, {"measurement": "Percent Growth", "setting": "[1]; Log10 Concentration −7.0", "value": 95, "unit": "%"}, {"measurement": "Percent Growth", "setting": "[1]; Log10 Concentration −8.0", "value": 93, "unit": "%"}, {"measurement": "GI50", "setting": "[2]", "value": 22.5, "unit": "µM"}, {"measurement": "TGI", "setting": "[2]", "value": ">1.00E−4"}, {"measurement": "Percent Growth", "setting": "[2]; Log10 Concentration −4.0", "value": 8, "unit": "%"}, {"measurement": "Percent Growth", "setting": "[2]; Log10 Concentration −5.0", "value": 73, "unit": "%"}, {"measurement": "Percent Growth", "setting": "[2]; Log10 Concentration −6.0", "value": 78, "unit": "%"}, {"measurement": "Percent Growth", "setting": "[2]; Log10 Concentration −7.0", "value": 83, "unit": "%"}, {"measurement": "Percent Growth", "setting": "[2]; Log10 Concentration −8.0", "value": 95, "unit": "%"}, {"measurement": "CC50", "setting": "[3]", "value": "> 100", "unit": "µM"}, {"measurement": "GI50", "setting": "[4]", "value": 12, "unit": "µM"}, {"measurement": "TGI", "setting": "[4]", "value": "7.03E−5"}, {"measurement": "Percent Growth", "setting": "[4]; Log10 Concentration −4.0", "value": "−10", "unit": "%"}, {"measurement": "Percent Growth", "setting": "[4]; Log10 Concentration −5.0", "value": 55, "unit": "%"}, {"measurement": "Percent Growth", "setting": "[4]; Log10 Concentration −6.0", "value": 84, "unit": "%"}, {"measurement": "Percent Growth", "setting": "[4]; Log10 Concentration −7.0", "value": 87, "unit": "%"}, {"measurement": "Percent Growth", "setting": "[4]; Log10 Concentration −8.0", "value": 92, "unit": "%"}, {"measurement": "GI50", "setting": "[5]", "value": 4.64, "unit": "µM"}, {"measurement": "TGI", "setting": "[5]", "value": "3.25E−5"}, {"measurement": "Percent Growth", "setting": "[5]; Log10 Concentration −4.0", "value": "−33", "unit": "%"}, {"measurement": "Percent Growth", "setting": "[5]; Log10 Concentration −5.0", "value": 35, "unit": "%"}, {"measurement": "Percent Growth", "setting": "[5]; Log10 Concentration −6.0", "value": 81, "unit": "%"}, {"measurement": "Percent Growth", "setting": "[5]; Log10 Concentration −7.0", "value": 86, "unit": "%"}, {"measurement": "Percent Growth", "setting": "[5]; Log10 Concentration −8.0", "value": 89, "unit": "%"}, {"measurement": "GI50", "setting": "[6]", "value": 2.01, "unit": "µM"}, {"measurement": "TGI", "setting": "[6]", "value": "2.69E−5"}, {"measurement": "Percent Growth", "setting": "[6]; Log10 Concentration −4.0", "value": "−22", "unit": "%"}, {"measurement": "Percent Growth", "setting": "[6]; Log10 Concentration −5.0", "value": 17, "unit": "%"}, {"measurement": "Percent Growth", "setting": "[6]; Log10 Concentration −6.0", "value": 65, "unit": "%"}, {"measurement": "Percent Growth", "setting": "[6]; Log10 Concentration −7.0", "value": 95, "unit": "%"}, {"measurement": "Percent Growth", "setting": "[6]; Log10 Concentration −8.0", "value": 98, "unit": "%"}, {"measurement": "CC50", "setting": "[7]", "value": "> 100", "unit": "µM"}, {"measurement": "GI50", "setting": "[8]", "value": 16.6, "unit": "µM"}, {"measurement": "TGI", "setting": "[8]", "value": "9.52E−5"}, {"measurement": "Percent Growth", "setting": "[8]; Log10 Concentration −4.0", "value": "−1", "unit": "%"}, {"measurement": "Percent Growth", "setting": "[8]; Log10 Concentration −5.0", "value": 64, "unit": "%"}, {"measurement": "Percent Growth", "setting": "[8]; Log10 Concentration −6.0", "value": 73, "unit": "%"}, {"measurement": "Percent Growth", "setting": "[8]; Log10 Concentration −7.0", "value": 81, "unit": "%"}, {"measurement": "Percent Growth", "setting": "[8]; Log10 Concentration −8.0", "value": 86, "unit": "%"}, {"measurement": "CC50", "setting": "[9]", "value": "> 100", "unit": "µM"}, {"measurement": "CC50", "setting": "[10]", "value": "> 100", "unit": "µM"}, {"measurement": "GI50", "setting": "[11]", "value": 3.45, "unit": "µM"}, {"measurement": "TGI", "setting": "[11]", "value": "7.21E−5"}, {"measurement": "Percent Growth", "setting": "[11]; Log10 Concentration −4.0", "value": "−4", "unit": "%"}, {"measurement": "Percent Growth", "setting": "[11]; Log10 Concentration −5.0", "value": 25, "unit": "%"}, {"measurement": "Percent Growth", "setting": "[11]; Log10 Concentration −6.0", "value": 79, "unit": "%"}, {"measurement": "Percent Growth", "setting": "[11]; Log10 Concentration −7.0", "value": 89, "unit": "%"}, {"measurement": "Percent Growth", "setting": "[11]; Log10 Concentration −8.0", "value": 101, "unit": "%"}, {"measurement": "CC50", "setting": "[12]", "value": "> 100", "unit": "µM"}, {"measurement": "CC50", "setting": "[13]", "value": "> 100", "unit": "µM"}, {"measurement": "CC50", "setting": "[14]", "value": "> 100", "unit": "µM"}, {"measurement": "CC50", "setting": "[15]", "value": "> 100", "unit": "µM"}, {"measurement": "GI50", "setting": "[16]", "value": 5.64, "unit": "µM"}, {"measurement": "TGI", "setting": "[16]", "value": ">1.00E−4"}, {"measurement": "Percent Growth", "setting": "[16]; Log10 Concentration −4.0", "value": 3, "unit": "%"}, {"measurement": "Percent Growth", "setting": "[16]; Log10 Concentration −5.0", "value": 40, "unit": "%"}, {"measurement": "Percent Growth", "setting": "[16]; Log10 Concentration −6.0", "value": 81, "unit": "%"}, {"measurement": "Percent Growth", "setting": "[16]; Log10 Concentration −7.0", "value": 82, "unit": "%"}, {"measurement": "Percent Growth", "setting": "[16]; Log10 Concentration −8.0", "value": 92, "unit": "%"}]}]}
